In publication PMC10818600, “In Silico Design, Synthesis, and Evaluation of Novel Enantiopure Isoxazolidines as Promising Dual Inhibitors of α-Amylase and α-Glucosidase” (Molecules, 2024):
Several values for one entry are separate records, joined by “and”; a condition that tells them apart may be missing. Equal values may be shown once.

How the values were obtained:
Type in all cases: biochemical
[1] = target: T1, human pancreatic α-amylase (Homo sapiens, UniProt P04746); assay: α-amylase inhibition assay; settings: for IC50: mean ± standard error, triplicates
T1 sequence (P04746 16-511): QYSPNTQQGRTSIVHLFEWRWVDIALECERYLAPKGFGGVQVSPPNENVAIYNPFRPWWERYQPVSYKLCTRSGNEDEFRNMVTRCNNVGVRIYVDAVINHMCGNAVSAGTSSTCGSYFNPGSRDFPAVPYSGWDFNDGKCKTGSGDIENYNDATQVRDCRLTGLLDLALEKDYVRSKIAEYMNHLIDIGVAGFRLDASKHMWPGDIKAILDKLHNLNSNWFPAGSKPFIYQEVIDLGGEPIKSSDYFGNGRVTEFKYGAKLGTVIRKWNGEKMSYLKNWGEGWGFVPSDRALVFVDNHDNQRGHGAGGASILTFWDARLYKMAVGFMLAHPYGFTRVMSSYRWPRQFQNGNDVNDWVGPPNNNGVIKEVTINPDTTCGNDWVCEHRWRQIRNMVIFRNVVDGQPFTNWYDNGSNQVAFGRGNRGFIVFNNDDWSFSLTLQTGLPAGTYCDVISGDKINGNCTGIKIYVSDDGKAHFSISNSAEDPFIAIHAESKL
Procedure: (§1) The inhibitory potential of the synthesized analogs against human pancreatic α-amylase and human lysosomal acid-α-glucosidase enzymes was carried out using the same protocol as described previously with slight modification. […] The percent of inhibition for both enzymes was calculated via the following formula: % inhibition=Abs(blank)−Abs(test compoud)/Abs (blank)×100
(§2) The results were expressed as IC50 (μM), and all the experiments were carried out in triplicates.

[2] = target: human lysosomal acid-α-glucosidase (Homo sapiens, UniProt P10253); assay: α-glucosidase inhibition assay; settings: for IC50: mean ± standard error, triplicates
Procedure: as §1, §2

α-glucosidase = α-glucosidase (Homo sapiens, UniProt P10253); assay: enzyme kinetic study, mode of α-glucosidase inhibition (Lineweaver–Burk)
Procedure: (§3) The kinetic studies were carried out based on the above IC50 values. […] A volume of 20 μL was incubated for 15 min at 30 °C using varying concentrations of the inhibitor 5d against α-amylase (0, 5, 25, and 35 μM) and α-glucosidase ([…]) with varying concentrations of inhibitor substrate (starch) in the range 0.3 to 8 mM, whereas concentrations for the inhibitor substrate (p-nitrophenyl-α-D-glucopyranoside, PNPg) were in the range 0.1–1.3 mM, respectively. This was conducted according to the same protocol as previously described, with slight modifications. The type of enzyme inhibition was assessed by preparing Lineweaver–Burk plots of the inverse of the velocities (1/V) versus the inverse of the substrate’s concentration 1/[S] mM^−1, and the change in absorbance was measured spectrophotometrically at 405 nm. The constant of inhibition, Ki, was determined through the secondary plot of the slope versus the inhibitor concentration.

α-amylase = target: T2, α-amylase (Homo sapiens, UniProt P04746); assay: enzyme kinetic study, mode of α-amylase inhibition (Lineweaver–Burk)
T2 sequence (P04746 16-511): T1 sequence (P04746 16-511)
Procedure: as §3

[3] = ratio of IC50 values vs acarbose

SMILES | IC50 [1] [µM] | IC50 [2] [µM] | mode of α-glucosidase inhibition (α-glucosidase; Lineweaver–Burk plot: Km increases, Vmax constant) | Ki (α-glucosidase; estimated from slope vs inhibitor concentration, substrate PNPg, read-out: inhibition constant Ki, α-glucosidase) [µM] | α-amylase inhibitory activity, fold higher than that of acarbose [1, 3] | α-glucosidase inhibitory activity, fold higher than that of acarbose [2, 3] | mode of α-amylase inhibition (α-amylase; Lineweaver–Burk plot: Vmax unchanged, Km increased) | Ki (α-amylase; estimated from secondary re-plot of Lineweaver–Burk plots, substrate starch, read-out: inhibition constant Ki, α-amylase) [µM]
COc1cc(C[C@@H]2C[C@@H]3C(=O)N(C)C4(C[C@H](C)CC[C@H]4C(C)C)N3O2)ccc1OCC(=O)NNC(=O)Nc1ccc(F)cc1 (stereo partly drawn) [5g, N-(4-fluorophenyl)-2-(2-(4-(((2S,2′R,3a’R,5R)-2-isopropyl-5,5′-dimethyl-4′-oxotetrahydro-2′H-spiro [cyclohexane-1,6′-imidazo[1,5-b]isoxazol]-2′-yl)methyl)-2-methoxyphenoxy)acetyl)hydrazine-1-carboxamide] | 134.8 ± 0.411 | 170.8 ± 0.358 | – | – | – | – | – | –
Cc1cccc(C[C@@H]2C[C@@H]3C(=O)N(C)C4(C[C@H](C)CC[C@H]4C(C)C)N3O2)c1OCC(=O)NNC(=O)Nc1cccc(Cl)c1 (stereo partly drawn) [5c, N-(3-chlorophenyl)-2-(2-(2-(((2S,2′R,3a’R,5R)-2-isopropyl-5,5′-dimethyl-4′-oxotetrahydro-2′H-spiro[cyclohexane-1,6′-imidazo[1,5-b]isoxazol]-2′-yl)methyl)-6-methylphenoxy)acetyl)hydrazine-1-carboxamide] | 92.28 ± 0.276 | 120.9 ± 0.333 | – | – | – | – | – | –
Cc1cccc(C[C@@H]2C[C@@H]3C(=O)N(C)C4(C[C@H](C)CC[C@H]4C(C)C)N3O2)c1OCC(=O)NNC(=O)Nc1cccc2ccccc12 (stereo partly drawn) [5d, 2-(2-(2-(((2S,2′R,3a’R,5R)-2-isopropyl-5,5′-dimethyl-4′-oxotetrahydro-2′H-spiro[cyclohexane-1,6′-imidazo[1,5-b]isoxazol]-2′-yl)methyl)-6-methylphenoxy)acetyl)-N-(naphthalen-1-yl)hydrazine-1-carboxamide] | 53.03 ± 0.106 | 94.33 ± 0.282 | competitive | 89.5 | 5.6 fold and 5.59 fold | 8.3 fold and 8.27 fold | competitive | 31.9
Cc1cccc(C[C@@H]2C[C@@H]3C(=O)N(C)C4(C[C@H](C)CC[C@H]4C(C)C)N3O2)c1OCC(=O)NNC(=O)Nc1ccc(F)cc1 (stereo partly drawn) [5a, N-(4-fluorophenyl)-2-(2-(2-(((2S,2′R,3a’R,5R)-2-isopropyl-5,5′-dimethyl-4′-oxotetrahydro-2′H-spiro[cyclohexane-1,6′-imidazo[1,5-b]isoxazol]-2′-yl)methyl)-6-methylphenoxy)acetyl)hydrazine-1-carboxamide] | 120.3 ± 0.306 | 152.3 ± 0.367 | – | – | – | – | – | –
COc1cc(C[C@@H]2C[C@@H]3C(=O)N(C)C4(C[C@H](C)CC[C@H]4C(C)C)N3O2)ccc1OCC(=O)NNC(=O)Nc1ccc(Br)cc1 (stereo partly drawn) [5f, N-(4-bromophenyl)-2-(2-(4-(((2S,2′R, 3a’R, 5R)-2-isopropyl-5,5′-dimethyl-4′-oxotetrahydro-2′H-spiro[cyclohexane-1,6′-imidazo[1,5-b]isoxazol]-2′-yl)methyl)-2-methoxyphenoxy)acetyl)hydrazine-1-carboxamide] | 183.8 ± 0.498 | 204.6 ± 0.41 | – | – | – | – | – | –
Cc1cccc(C[C@@H]2C[C@@H]3C(=O)N(C)C4(C[C@H](C)CC[C@H]4C(C)C)N3O2)c1OCC(=O)NNC(=O)Nc1ccc(Cl)c(C(F)(F)F)c1 (stereo partly drawn) [5b, N-(3-trifluoromethyl-4-chlorophenyl)-2-(2-(2-(((2S,2′R,3a’R,5R)-2-isopropyl-5,5′-dimethyl-4′-oxotetrahydro-2′H-spiro[cyclohexane-1,6′-imidazo[1,5-b]isoxazol]-2′-yl)methyl)-6-methylphenoxy)acetyl)hydrazine-1-carboxamide] | 67.4 ± 0.202 | 118.9 ± 0.325 | – | – | – | – | – | –
Cc1cccc(C[C@@H]2C[C@@H]3C(=O)N(C)C4(C[C@H](C)CC[C@H]4C(C)C)N3O2)c1OCC(=O)NNC(=O)Nc1ccc(Cl)cc1 (stereo partly drawn) [5e, N-(4-chlorophenyl)-2-(2-(2-(((2S,2′R,3a’R,5R)-2-isopropyl-5,5′-dimethyl-4′-oxotetrahydro-2′H-spiro[cyclohexane-1,6′-imidazo[1,5-b]isoxazol]-2′-yl)methyl)-6-methylphenoxy)acetyl)hydrazine-1-carboxamide] | 232.8 ± 0.517 | 258.7 ± 0.521 | – | – | – | – | – | –
